Experiment [1] has as its target T1, Recombinant His-tagged NAMPT (Homo sapiens, UniProt P43490).
T1 construct: His; host or cells: E. coli
As to the kind of experiment: Biochemical inhibition assay: NAMPT enzymatic reaction, NMN quantified by mass spectrometry. The settings on record: 33 nM NAMPT, 1 μM NAM, 100 μM PRPP, 30 minutes at room temperature, read-out: Biochem IC50. In a few lines: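 Reaction 30 min at room temperature with 1 μM NAM, 100 μM PRPP, 2.5 mM ATP (final), quenched with formic acid. NMN quantified by RapidFire electrospray MS, normalized to L-cystathionine; IC50 from percent inhibition versus DMSO.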

Experiment [2] deals with A2780 cells. The experiment is described as follows: In-vitro cell proliferation assay (SRB, 72 hours). Format: cell-based. The settings on record: sulforhodamine B (SRB) assay. Put shortly:
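Background from media-only plate subtracted; inhibition relative to DMSO-treated cells, value derived by interpolation between two concentrations.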

Here are results for 31 molecules from patent US9555039B2, “Piperidine derivatives and compositions for the inhibition of nicotinamide phosphoribosyltransferase (NAMPT)” (Forma TM, LLC., priority 2011, dated 2017).

Where two headings read alike, the source gives them in different places.

T1 sequence (P43490 whole entry): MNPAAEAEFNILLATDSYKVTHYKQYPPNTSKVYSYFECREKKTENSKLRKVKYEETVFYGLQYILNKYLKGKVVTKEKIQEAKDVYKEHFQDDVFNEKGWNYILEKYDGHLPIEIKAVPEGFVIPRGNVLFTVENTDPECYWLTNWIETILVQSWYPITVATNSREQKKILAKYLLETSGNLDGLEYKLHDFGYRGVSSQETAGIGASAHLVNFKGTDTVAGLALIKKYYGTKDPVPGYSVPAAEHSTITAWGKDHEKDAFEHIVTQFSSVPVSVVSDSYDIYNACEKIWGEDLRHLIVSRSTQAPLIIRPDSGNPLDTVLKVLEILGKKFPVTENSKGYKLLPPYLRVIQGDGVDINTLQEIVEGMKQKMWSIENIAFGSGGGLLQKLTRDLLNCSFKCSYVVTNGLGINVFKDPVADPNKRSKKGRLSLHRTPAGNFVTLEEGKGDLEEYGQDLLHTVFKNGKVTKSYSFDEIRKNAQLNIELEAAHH

With `O=C(NCCCCC1CCN(S(=O)(=O)c2cccc(Cl)c2)CC1)c1cc2cnccc2[nH]1` [N-(4-{1-[(3-chlorobenzene)sulfonyl]piperidin-4-yl}butyl)-1H-pyrrolo[3,2-c]pyridine-2-carboxamide], the figures for the IC50 in experiment [1] (2.5 mM ATP) and in experiment [2] (Homo sapiens) were 38.8 nM and 27.7 nM, respectively.
Turning to `O=C(NCCCCC1CCN(C(=O)c2ccc(Cl)cc2)CC1)c1cc2ccncc2s1` [N-(4-{1-[(4-chlorophenyl)carbonyl]piperidin-4-yl}butyl)thieno[2,3-c]pyridine-2-carboxamide], the 50% inhibitory concentration (IC50) (commonly the midpoint of a concentration-inhibition curve) in experiment [1] (2.5 mM ATP) was 22.8 nM; in experiment [2] (Homo sapiens), 1000 to 10000 nM.
In the case of `O=C(NCCCCC1CCN(S(=O)(=O)c2ccc(C(F)(F)F)nc2)CC1)c1cc2cnccc2[nH]1` [N-(4-{1-[6-(trifluoromethyl)pyridine-3-sulfonyl]piperidin-4-yl}butyl)-1H-pyrrolo[3,2-c]pyridine-2-carboxamide], the values for the 50% inhibitory concentration (IC50) in experiment [1] (2.5 mM ATP) and in experiment [2] (Homo sapiens) were 81.5 nM and 29.8 nM, respectively.
As for `O=C(NCCCCC1CCN(C(=O)c2ccc(C(F)(F)F)cc2)CC1)c1ccc2nccn2c1` [N-[4-(1-{[4-(trifluoromethyl)phenyl]carbonyl}piperidin-4-yl)butyl]imidazo[1,2-a]pyridine-6-carboxamide], the 50% inhibitory concentration (IC50) was 152 nM in experiment [1] (2.5 mM ATP) and 100 to 1000 nM in experiment [2] (Homo sapiens).
As to `O=C(NCCCCC1CCN(C(=O)c2ccc(F)cc2)CC1)c1cc2ccncc2s1` [N-(4-{1-[(4-fluorophenyl)carbonyl]piperidin-4-yl}butyl)thieno[2,3-c]pyridine-2-carboxamide], the IC50 in experiment [1] (2.5 mM ATP) was 51.8 nM; in experiment [2] (Homo sapiens), 100 to 1000 nM.
On the same counts, the results for `O=C(NCCC1CCN(S(=O)(=O)c2ccccc2)CC1)c1cc2cnccc2[nH]1` [N-{2-[1-(benzenesulfonyl)piperidin-4-yl]ethyl}-1H-pyrrolo[3,2-c]pyridine-2-carboxamide] are 50.9 nM and 1030 nM.
In the same order, the values of `COc1cccc(C(=O)N2CCC(CCCCNC(=O)c3cc4ccncc4s3)CC2)c1` [N-(4-{1-[(3-methoxyphenyl)carbonyl]piperidin-4-yl}butyl)thieno[2,3-c]pyridine-2-carboxamide] are 26.1 nM and 11 nM.
In the case of `O=C(NCCCCC1CCN(C(=O)c2cc3cnccc3[nH]2)CC1)c1cc2ccncc2s1` [N-{4-[1-({1H-pyrrolo[3,2-c]pyridin-2-yl}carbonyl)piperidin-4-yl]butyl}thieno[2,3-c]pyridine-2-carboxamide], the 50% inhibitory concentration (IC50) came to 6.9 nM in experiment [1] (2.5 mM ATP) and 13.7 nM in experiment [2] (Homo sapiens).
In the same order, the values of `O=C(NCCCCC1CCN(C(=O)c2csc(-c3ccccc3)n2)CC1)c1cc2cnccc2[nH]1` [N-(4-{1-[(2-phenyl-1,3-thiazol-4-yl)carbonyl]piperidin-4-yl}butyl)-1H-pyrrolo[3,2-c]pyridine-2-carboxamide] are 110 nM and 72.5 nM.
As for `O=C(NCCCCC1CCN(C(=O)c2ccc(-n3cccn3)cc2)CC1)c1cc2cnccc2[nH]1` [N-[4-(1-{[4-(1H-pyrazol-1-yl)phenyl]carbonyl}piperidin-4-yl)butyl]-1H-pyrrolo[3,2-c]pyridine-2-carboxamide], the half-inhibitory concentration (IC50) in experiment [1] (2.5 mM ATP) turned out to be 50.7 nM; in experiment [2] (Homo sapiens) it was 13.6 nM.
Take `COc1ccc(OC)c(C(=O)N2CCC(CCCCNC(=O)c3cc4ccncc4s3)CC2)c1` [N-(4-{1-[(2,5-dimethoxyphenyl)carbonyl]piperidin-4-yl}butyl)thieno[2,3-c]pyridine-2-carboxamide]: the IC50 in experiment [1] (2.5 mM ATP) stood at 5.5 nM; in experiment [2] (Homo sapiens), 2.9 nM.
As for `COc1ccc(C(=O)N2CCC(CCCCNC(=O)c3ccc4nccn4c3)CC2)cc1OC` [N-(4-{1-[(3,4-dimethoxyphenyl)carbonyl]piperidin-4-yl}butyl)imidazo[1,2-a]pyridine-6-carboxamide], the IC50 amounted to 38.5 nM in experiment [1] (2.5 mM ATP) and 2.9 nM in experiment [2] (Homo sapiens).
`Cn1c(C(=O)N2CCC(CCCCNC(=O)c3ccc4nccn4c3)CC2)cc2ccccc21` [N-(4-{1-[(1-methyl-1H-indol-2-yl)carbonyl]piperidin-4-yl}butyl)imidazo[1,2-a]pyridine-6-carboxamide]: the half-inhibitory concentration (IC50) was found to be 124 nM in experiment [1] (2.5 mM ATP) and 55.1 nM in experiment [2] (Homo sapiens).
In the same order, the values of `CCOc1cccc(C(=O)N2CCC(CCCCNC(=O)c3cc4ccncc4s3)CC2)c1` [N-(4-{1-[(3-ethoxyphenyl)carbonyl]piperidin-4-yl}butyl)thieno[2,3-c]pyridine-2-carboxamide] are 39.1 nM and 76.5 nM.
In the case of `COc1ccc(C(=O)N2CCC(CCCCNC(=O)c3cc4cnccc4[nH]3)CC2)c(OC)c1` [N-(4-{1-[(2,4-dimethoxyphenyl)carbonyl]piperidin-4-yl}butyl)-1H-pyrrolo[3,2-c]pyridine-2-carboxamide], the 50% inhibitory concentration (IC50) in experiment [1] (2.5 mM ATP) was found to be 67.1 nM; in experiment [2] (Homo sapiens) it was 3.3 nM.
Consider `O=C(NCCCCN1CCN(C(=O)c2ccccc2)CC1)c1cc2cnccc2[nH]1` [N-[4-(4-benzoylpiperazin-1-yl)butyl]-1H-pyrrolo[3,2-c]pyridine-2-carboxamide], for which the half-maximal inhibitory concentration (IC50) in experiment [1] (2.5 mM ATP) was 16 nM; in experiment [2] (Homo sapiens), 94.7 nM.
Turning to `COc1ncc(Cl)cc1C(=O)N1CCC(CCCCNC(=O)c2ccc3nccn3c2)CC1` [N-(4-{1-[(5-chloro-2-methoxypyridin-3-yl)carbonyl]piperidin-4-yl}butyl)imidazo[1,2-a]pyridine-6-carboxamide], the figures for the IC50 in experiment [1] (2.5 mM ATP) and in experiment [2] (Homo sapiens) were 12.3 nM and 3.3 nM, respectively.
With `O=C(NCCCCC1CCN(C(=O)C2CCCCC2)CC1)c1cc2cnccc2[nH]1` [N-[4-(1-cyclohexanecarbonylpiperidin-4-yl)butyl]-1H-pyrrolo[3,2-c]pyridine-2-carboxamide], the figures for the IC50 in experiment [1] (2.5 mM ATP) and in experiment [2] (Homo sapiens) were 180 nM and 15.5 nM, respectively.
On to `COc1ccc(OC)c(S(=O)(=O)N2CCC(CCCCNC(=O)c3cc4cnccc4[nH]3)CC2)c1` [N-(4-{1-[(2,5-dimethoxybenzene)sulfonyl]piperidin-4-yl}butyl)-1H-pyrrolo[3,2-c]pyridine-2-carboxamide], for which the IC50 stood at 28.4 nM in experiment [1] ([…] ATP) and 1.8 nM in experiment [2].
Consider `Cn1cnc(C(=O)N2CCC(CCCCNC(=O)c3cc4cnccc4[nH]3)CC2)c1` [N-(4-{1-[(1-methyl-1H-imidazol-4-yl)carbonyl]piperidin-4-yl}butyl)-1H-pyrrolo[3,2-c]pyridine-2-carboxamide], for which the 50% inhibitory concentration (IC50) amounted to 93.7 nM in experiment [1] (2.5 mM ATP) and 55 nM in experiment [2] (Homo sapiens).
On to `CC(=O)N1CCC(C(=O)N2CCC(CCCCNC(=O)c3ccc4nccn4c3)CC2)CC1` [N-(4-{1-[(1-acetylpiperidin-4-yl)carbonyl]piperidin-4-yl}butyl)imidazo[1,2-a]pyridine-6-carboxamide], for which the IC50 in experiment [1] (2.5 mM ATP) was 39.6 nM; in experiment [2] (Homo sapiens), 27.8 nM.
In the case of `O=C(NCCCCC1CCN(C(=O)c2cnc(C(F)(F)F)nc2)CC1)c1cc2ccncc2s1` [N-[4-(1-{[2-(trifluoromethyl)pyrimidin-5-yl]carbonyl}piperidin-4-yl)butyl]thieno[2,3-c]pyridine-2-carboxamide], the IC50 in experiment [1] (2.5 mM ATP) was 158 nM; in experiment [2] (Homo sapiens), 100 to 1000 nM.
With `COc1cc(OC)cc(C(=O)N2CCC(CCCCNC(=O)c3cc4cnccc4[nH]3)CC2)c1` [N-(4-{1-[(3,5-dimethoxyphenyl)carbonyl]piperidin-4-yl}butyl)-1H-pyrrolo[3,2-c]pyridine-2-carboxamide], the 50% inhibitory concentration (IC50) in experiment [1] (2.5 mM ATP) was found to be 74.1 nM; in experiment [2] (Homo sapiens), 2.6 nM.
For the molecule `COc1cccc(C(=O)N2CCC(CCCCNC(=O)c3ccc4nccn4c3)CC2)c1OC` [N-(4-{1-[(2,3-dimethoxyphenyl)carbonyl]piperidin-4-yl}butyl)imidazo[1,2-a]pyridine-6-carboxamide], the 50% inhibitory concentration (IC50) in experiment [1] (2.5 mM ATP) came to 19.1 nM; in experiment [2] (Homo sapiens) it was 2.9 nM.
As for `O=C(NCCCCC1CCN(C(=O)c2cc(Cl)cc(Cl)c2)CC1)c1cc2ccncc2s1` [N-(4-{1-[(3,5-dichlorophenyl)carbonyl]piperidin-4-yl}butyl)thieno[2,3-c]pyridine-2-carboxamide], the values for the IC50 in experiment [1] (2.5 mM ATP) and in experiment [2] (Homo sapiens) were 30 nM and 51.3 nM, respectively.
On to `CC(C)Oc1ccc(C(=O)N2CCC(CCCCNC(=O)c3cc4ccncc4s3)CC2)cc1` [N-[4-(1-{[4-(propan-2-yloxy)phenyl]carbonyl}piperidin-4-yl)butyl]thieno[2,3-c]pyridine-2-carboxamide], for which the half-inhibitory concentration (IC50) was 40 nM in experiment [1] (2.5 mM ATP) and 100 to 1000 nM in experiment [2] (Homo sapiens).
Regarding `Cc1c(F)cccc1C(=O)N1CCC(CCCCNC(=O)c2cc3ccncc3s2)CC1` [N-(4-{1-[(3-fluoro-2-methylphenyl)carbonyl]piperidin-4-yl}butyl)thieno[2,3-c]pyridine-2-carboxamide], the IC50 stood at 6.8 nM in experiment [1] (2.5 mM ATP) and 3.2 nM in experiment [2] (Homo sapiens).
Consider `Cn1cnc(C(=O)N2CCC(CCCCNC(=O)c3ccc4nccn4c3)CC2)c1` [N-(4-{1-[(1-methyl-1H-imidazol-4-yl)carbonyl]piperidin-4-yl}butyl)imidazo[1,2-a]pyridine-6-carboxamide], for which the IC50 in experiment [1] (2.5 mM ATP) was 56.7 nM; in experiment [2] (Homo sapiens) it was 107 nM.
With `COc1ccc(C(=O)N2CCC(CCCCNC(=O)c3cc4ccncc4s3)CC2)cc1` [N-(4-{1-[(4-methoxyphenyl)carbonyl]piperidin-4-yl}butyl)thieno[2,3-c]pyridine-2-carboxamide], the IC50 in experiment [1] (2.5 mM ATP) came out at 52.2 nM; in experiment [2] (Homo sapiens), 80.3 nM.
Regarding `O=C(NCCCCC1CCN(C(=O)c2ccc3ncsc3c2)CC1)c1cc2cnccc2[nH]1` [N-(4-{1-[(1,3-benzothiazol-6-yl)carbonyl]piperidin-4-yl}butyl)-1H-pyrrolo[3,2-c]pyridine-2-carboxamide], the IC50 in experiment [1] (2.5 mM ATP) was found to be 72.7 nM; in experiment [2] (Homo sapiens), 12.6 nM.
As to `Cc1ccc(C(=O)N2CCC(CCCCNC(=O)c3cc4cnccc4[nH]3)CC2)cn1` [N-(4-{1-[(6-methylpyridin-3-yl)carbonyl]piperidin-4-yl}butyl)-1H-pyrrolo[3,2-c]pyridine-2-carboxamide], the concentration for half-maximal inhibition (IC50) in experiment [1] (2.5 mM ATP) turned out to be 65.1 nM; in experiment [2] (Homo sapiens), 21.3 nM.
